Strand notation (5' to 3'): a small letter for the sugar, then the base; units joined by * are phosphorothioate-linked, units joined directly phosphodiester-linked; [ ] holds rarer units or linkages, { } end groups; capitals alone tell only the bases. k = constrained ethyl (cEt); [5mC] = 5-methylcytosine; d = 2'-deoxy (DNA)
Test system: Yap1 mRNA
Test: Antisense inhibition of human Yap1 in A-431 cells by cEt gapmers, single dose (Example 2, RTS4814)
Assay type: cell-based
Summary of the method: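 Read-out is Yap1 mRNA as percent of untreated cells, by real-time RT-PCR (probe set RTS4814) normalized to total RNA via RIBOGREEN. Cells were A-431 dosed with 2,000 nM gapmer without transfection for approximately 48 hours.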

[1] = Table 32, Yap1 mRNA, percent of untreated control, 3-10-3 cEt gapmers targeting SEQ ID NO.: 1, and 2
[2] = Table 23, Yap1 mRNA as percent of untreated control, 3-10-3 cEt gapmers, single dose
[3] = Table 24, Yap1 mRNA as percent of untreated control, 3-10-3 cEt gapmers targeting SEQ ID NO.: 1, and 2
[4] = Table 18, A-431 cells, 5,000 cells per well, free uptake, 2,000 nM modified oligonucleotide, approx. 48 hours, RTS4814, normalized to RIBOGREEN, Yap1 mRNA as percent of untreated control
[5] = Table 21, Yap1 mRNA, percent of untreated control, 3-10-3 cEt gapmers targeting SEQ ID NO.: 1 and 2
[6] = Yap1 mRNA as percent of untreated control, A-431 cells, 3-10-3 cEt gapmers targeting SEQ ID NO.: 1, and 2, Table 30
[7] = Table 19, A-431 cells, 5,000 cells per well, free uptake, 2,000 nM modified oligonucleotide, approx. 48 hours, RTS4814, normalized to RIBOGREEN, Yap1 mRNA as percent of untreated control
[8] = Table 6, A-431 cells, 5,000 cells per well, free uptake, 2,000 nM modified oligonucleotide, approx. 48 hours, RTS4814, normalized to RIBOGREEN, Yap1 mRNA relative to untreated control cells
[9] = Table 5, A-431 cells, 5,000 cells per well, free uptake, 2,000 nM modified oligonucleotide, approx. 48 hours, RTS4814, normalized to RIBOGREEN, Yap1 mRNA relative to untreated control cells
[10] = Table 22, Yap1 mRNA as percent of untreated control, 3-10-3 cEt gapmers, single dose
[11] = A-431 cells, 5,000 cells per well, free uptake, 2,000 nM modified oligonucleotide, approx. 48 hours, RTS4814, normalized to RIBOGREEN, Table 4, asterisk (*) = targets amplicon region of primer probe set
[12] = Table 33, Yap1 mRNA, percent of untreated control, 3-10-3 cEt gapmers targeting SEQ ID NO.: 1, and 2
[13] = Yap1 mRNA as percent of untreated control, A-431 cells, 3-10-3 cEt gapmers targeting SEQ ID NO.: 1, and 2, Table 31

1074322 (antisense kA*kG*kG*dG*d[5mC]*dT*dA*dA*d[5mC]*dT*d[5mC]*d[5mC]*dT*kG*kA*k[5mC]) [compound 1074322]
YAP1 (% UTC) [1]: 94 % UTC

1075593 (k[5mC]*kA*kT*dT*dA*dG*dA*dG*dT*dA*dT*dG*dA*kA*k[5mC]*kT; antisense) [Compound 1075593]
YAP1 (% UTC) [2]: 99 % UTC

1076554 (antisense kT*kG*kG*dG*dA*dA*dT*dA*dG*dT*dG*dA*dA*kT*kT*kT) [Compound 1076554]
YAP1 (% UTC) [3]: 30 % UTC

1074738 (k[5mC]*kT*kT*d[5mC]*dA*dG*dG*dT*d[5mC]*dA*dG*dT*dA*k[5mC]*kA*kG; antisense) [compound 1074738]
YAP1 (% UTC) [1]: 12 % UTC

1074500 (k[5mC]*kT*kA*d[5mC]*dA*dA*dT*dA*dA*d[5mC]*d[5mC]*dA*dT*k[5mC]*k[5mC]*k[5mC]; antisense) [Compound 1074500]
YAP1 (% UTC) [4]: 10 % UTC

1075591 (kG*kT*kA*dA*dT*dA*dA*dT*d[5mC]*dA*d[5mC]*d[5mC]*dT*kT*kA*k[5mC]; antisense) [Compound 1075591]
YAP1 (% UTC) [5]: 76 % UTC

1074832 (kG*k[5mC]*kG*dA*dG*dG*dA*dT*dA*dA*dA*dA*dT*k[5mC]*k[5mC]*kA; antisense) [compound 1074832]
YAP1 (% UTC) [6]: 17 % UTC

1074698 (antisense kT*kA*kT*d[5mC]*dA*dA*dG*dG*dT*d[5mC]*d[5mC]*d[5mC]*d[5mC]*k[5mC]*kT*kA) [Compound 1074698]
YAP1 (% UTC) [3]: 78 % UTC

1074501 (kA*k[5mC]*kT*dA*d[5mC]*dA*dA*dT*dA*dA*d[5mC]*d[5mC]*dA*kT*k[5mC]*k[5mC]; antisense) [Compound 1074501]
YAP1 (% UTC) [7]: 9 % UTC

1074213 (antisense kG*kA*kG*dT*d[5mC]*dG*dG*dG*d[5mC]*dA*dG*d[5mC]*dT*kT*k[5mC]*k[5mC]) [Compound 1074213]
YAP1 (% UTC) [7]: 55 % UTC

716534 (antisense kG*kA*kT*dT*dA*dT*dA*dA*dA*dA*dT*dT*dG*kG*kT*kT) [Compound 716534]
YAP1 (% UTC) [8]: 90 % UTC

716359 (k[5mC]*k[5mC]*k[5mC]*d[5mC]*dT*dG*dA*d[5mC]*d[5mC]*d[5mC]*dA*dG*dG*k[5mC]*kG*kA; antisense) [Compound 716359]
YAP1 (% UTC) [9]: 101 % UTC

1075912 (kA*kG*kT*dT*dA*dT*dA*d[5mC]*dA*d[5mC]*dA*dA*d[5mC]*k[5mC]*kA*k[5mC]; antisense) [Compound 1075912]
YAP1 (% UTC) [10]: 13 % UTC

1076457 (antisense kG*kA*kA*d[5mC]*dT*dA*dT*dA*dA*dT*d[5mC]*dT*dT*kA*kT*kA) [Compound 1076457]
YAP1 (% UTC) [2]: 74 % UTC

1075785 (k[5mC]*kA*kT*dT*dT*dT*dA*dT*dA*dG*dG*dG*d[5mC]*k[5mC]*kA*kT; antisense) [Compound 1075785]
YAP1 (% UTC) [2]: 2 % UTC

1075945 (kG*kT*kA*dT*dT*dA*dG*dG*dA*dA*d[5mC]*dA*dG*kA*kT*k[5mC]; antisense) [Compound 1075945]
YAP1 (% UTC) [2]: 11 % UTC

716544 (antisense kT*kA*k[5mC]*dT*dT*dA*dA*d[5mC]*dA*d[5mC]*dA*dG*d[5mC]*kA*kA*k[5mC]) [Compound 716544]
YAP1 (% UTC) [11]: 71 % UTC

1076295 (kG*kT*kA*dT*dA*dT*dT*dA*dG*dT*dG*d[5mC]*d[5mC]*k[5mC]*k[5mC]*k[5mC]; antisense) [Compound 1076295]
YAP1 (% UTC) [5]: 2 % UTC

1075794 (k[5mC]*kA*kT*dA*dA*dT*dG*dA*dA*dT*dG*dT*dG*kG*kG*kT; antisense) [compound 1075794]
YAP1 (% UTC) [1]: 38 % UTC

1076104 (kA*k[5mC]*kG*dA*dA*dA*dT*dA*dG*dT*dA*dA*d[5mC]*kT*kG*kT; antisense) [Compound 1076104]
YAP1 (% UTC) [10]: 24 % UTC

1075347 (antisense k[5mC]*kA*kT*dA*dG*dG*dT*dA*dG*dG*d[5mC]*dA*dA*k[5mC]*kA*kA) [compound 1075347]
YAP1 (% UTC) [12]: 20 % UTC

1075908 (kA*kA*kT*dA*dA*dG*dG*dA*dG*dT*dA*dG*dG*kT*kG*kG; antisense) [Compound 1075908]
YAP1 (% UTC) [4]: 50 % UTC

1076521 (antisense kA*k[5mC]*kT*dA*dA*dA*dG*dG*dA*dG*dT*d[5mC]*dA*kT*kG*kA) [Compound 1076521]
YAP1 (% UTC) [2]: 67 % UTC

1074120 (antisense kG*k[5mC]*kG*dA*dG*dG*d[5mC]*dA*d[5mC]*dT*d[5mC]*dG*dG*kA*k[5mC]*k[5mC]) [Compound 1074120]
YAP1 (% UTC) [10]: 50 % UTC

1074761 (kT*kA*k[5mC]*d[5mC]*d[5mC]*dA*dA*dT*dA*d[5mC]*dA*dA*d[5mC]*k[5mC]*kA*kA; antisense) [Compound 1074761]
YAP1 (% UTC) [2]: 15 % UTC

1074760 (kA*k[5mC]*kA*dA*d[5mC]*d[5mC]*dA*dA*dG*dA*dA*dG*d[5mC]*kA*kG*kT; antisense) [Compound 1074760]
YAP1 (% UTC) [10]: 11 % UTC

716418 (k[5mC]*k[5mC]*kT*dG*dA*dG*dG*dG*d[5mC]*dT*d[5mC]*dT*dA*kT*kA*kA; antisense) [Compound 716418]
YAP1 (% UTC) [11]: 75 % UTC

1074225 (antisense k[5mC]*k[5mC]*kA*dG*dA*dG*dA*d[5mC]*dT*dA*d[5mC]*dT*d[5mC]*k[5mC]*kA*kG) [compound 1074225]
YAP1 (% UTC) [13]: 11 % UTC

1075313 (antisense k[5mC]*kT*kT*dA*dA*dT*dT*dG*dA*dA*d[5mC]*dT*d[5mC]*kA*kG*kG) [compound 1075313]
YAP1 (% UTC) [13]: 28 % UTC

1075379 (antisense kT*kA*k[5mC]*d[5mC]*dA*dA*dA*dA*d[5mC]*dT*dA*d[5mC]*dA*kA*k[5mC]*k[5mC]) [compound 1075379]
YAP1 (% UTC) [12]: 75 % UTC

716392 (k[5mC]*kT*kG*d[5mC]*d[5mC]*dA*d[5mC]*d[5mC]*d[5mC]*dA*dT*dG*dA*k[5mC]*kG*k[5mC]; antisense) [Compound 716392]
YAP1 (% UTC) [9]: 95 % UTC

1074547 (kG*kA*kG*d[5mC]*dA*d[5mC]*dT*d[5mC]*d[5mC]*d[5mC]*d[5mC]*dT*dA*kG*kG*k[5mC]; antisense) [compound 1074547]
YAP1 (% UTC) [12]: 71 % UTC

1076135 (k[5mC]*kA*kT*dA*dA*dT*dT*dG*dA*d[5mC]*dA*dG*dG*kT*kA*kT; antisense) [Compound 1076135]
YAP1 (% UTC) [5]: 14 % UTC

1075539 (k[5mC]*kT*kT*dA*dA*dG*dG*dG*dA*dT*dG*dG*dA*kA*k[5mC]*kA; antisense) [compound 1075539]
YAP1 (% UTC) [12]: 79 % UTC

716454 (k[5mC]*kG*kA*dG*dA*dT*dT*dT*dA*dA*dA*dT*dA*kA*kG*kG; antisense) [Compound 716454]
YAP1 (% UTC) [11]: 27 % UTC

1074697 (antisense kA*kT*k[5mC]*dA*dA*dG*dG*dT*d[5mC]*d[5mC]*d[5mC]*d[5mC]*d[5mC]*kT*kA*kA) [Compound 1074697]
YAP1 (% UTC) [2]: 44 % UTC

1074320 (antisense kG*kG*k[5mC]*dT*dA*dA*d[5mC]*dT*d[5mC]*d[5mC]*dT*dG*dA*k[5mC]*kA*kT) [compound 1074320]
YAP1 (% UTC) [6]: 80 % UTC

1075108 (antisense k[5mC]*kT*kA*dA*dA*dA*dA*d[5mC]*dA*dT*dT*dG*dT*kG*kG*k[5mC]) [Compound 1075108]
YAP1 (% UTC) [4]: 67 % UTC

716531 (antisense kG*kG*kA*d[5mC]*dA*dT*dA*dA*dA*dA*d[5mC]*dA*dA*kG*kA*kG) [Compound 716531]
YAP1 (% UTC) [8]: 65 % UTC

Reference: US11214803B2, “Modulators of YAP1 expression” (Ionis Pharmaceuticals, Inc., priority 2019, dated 2022)
